For data set [1], the system named is P-selectin ligand activity of CLA+ T-lymphocytes. Nature of the data set: Parallel-plate flow chamber, CLA+ T-cell tethering and rolling on P-selectin chimera. In kind it is cell-based, human. As to the method: (§1) To analyze the affects of 4-F-GlcNAc on the function of CLA on human T-cells, we examined the ability of 4-F-GlcNAc-treated (0.05, 0.1, 0.5 mM for 30 hrs) CLA-+ T-cells cultures to engage with immobilized E- and P-selectin chimera in the parallel-plate flow chamber. As described for flow cytometric analyses (Example 13), cells were first pretreated with neuraminidase to remove terminal sialic acid residues required for HECA-452 reactivity and for E- and P-selectin ligand activity of CLA. This approach allowed for the assessment on de novo synthesized CLA molecules.
(§2) Tethering and rolling of human T-cells on recombinant human E- and P-selectin-Ig chimera (provided by Dr. Robert Fuhlbrigge, Harvard Medical School) and human L-selectin-Ig (gift from Dr. Ray Camphausen, Wyeth/Genetics Institute, Inc., Cambridge, Mass.) were analyzed in the parallel-plate flow chamber under physiologic shear stress conditions (3). To prepare E- and P-selectin-Ig chimera spots, protein A (300 μg/15 μl 0.1M NaHCO3) was adsorbed to Ten-twenty-nine™ Petri dishes for 2 h at 37° C. Human serum albumin ([…] PBS) then added and incubated for 2 h at 37° C. to block non-specific binding sites. E-selectin-Ig (50 ng/50 μl PBS) or P-selectin-Ig (50 ng/50 μl PBS) solutions was pipetted directly over the pre-existing protein A spots for 18 h at 4° C. To prepare L-selectin-Ig spots, L-selectin-Ig (300 ng/15 μl PBS) or isotype control human IgG (300 ng/15 μl) were adsorbed directly to plastic (non-protein A-coated) for 18 h at 4° C. and blocked in 100% FBS for 2 h at 4° C.
(§3) CLA^+ T-cells or freshly isolated PBL were treated with neuraminidase and metabolic glycosylation inhibitors or with protease (bromelain) as described above, washed twice in HBSS, suspended at 2×10^6/ml in HBSS/10 mM HEPES/2 mM CaCl2 (H/H/Ca^++) and infused into the chamber over selectin chimeras. Protease treatment was performed to control for residual E-selectin activity not attributable to the expression of CLA on a protein scaffold. Cell tethering was permitted at 0.6 dynes/cm^2 for 1 min, then stepwise increments in shear stress every 15 sec were employed to a final shear stress level of 60 dynes/cm^2. The number of cells rolling/viewing field (at 100× magnification) was quantified at each level of shear stress in triplicates for a minimum of three experiments. […] Negative control experiments were performed in parallel, wherein cell binding was examined in H/H adhesion assay medium containing 5 mM EDTA as well as assaying cell binding to human IgG isotype control.
(§4) Utilizing the parallel-plate flow chamber under physiologic shear stress conditions, E-, P- and L-selectin ligand activities of human CLA^+ T-cells treated were analyzed in an identical manner as cells prepared for Western blotting and autoradiography studies.

Data set [2] concerns E-selectin ligand activity of CLA+ T-lymphocytes. Kind of data set: Parallel-plate flow chamber, CLA+ T-cell tethering and rolling on E-selectin chimera. The class given is cell-based, human. As to the method: as §1, §2, §3, §4
In data set [3] the test system is L-selectin ligand activity of human CLA+ T-cells. Kind of data set: Parallel-plate flow chamber, CLA+ T-cell rolling on L-selectin chimera. The class given is cell-based. On the procedure:
as §2, §3, §4

Data set [4] has as its system HECA-452 epitopes on PSGL-1. Nature of the data set: Western blot of HECA-452 epitopes on PSGL-1 of CLA+ T-cells. The class given is cell-based, human. On the procedure:
For analysis of CLA expression on T-cells treated with glycoconjugate modifiers, CLA^+ T-cells were first pretreated with neuraminidase (0.1 U/ml at 37° C. for 1 h) to eliminate functional CLA and cleave all HECA-452 reactive epitopes from the cell surface (35–38). Since we wanted to investigate whether these compounds directly affected CLA expression and function, neuraminidase pretreatment followed by incubations with glycosylation modifiers allowed for examination of de novo synthesized CLA/HECA-452 epitopes re-expressed on the cell surface. After neuraminidase digestion, cells were then incubated with tunicamycin (0.02 mM) (an inhibitor of GlcNAc phosphotransferase, the initial step of N-glycosylation), swainsonine (0.23 mM) (an inhibitor of α-mannosidase II and complex-type N-glycosylation), 4-F-GlcNAc (0.05 mM) (putative inhibitor of poly-N-acetyllactosamine biosynthesis), BAG (an inhibitor of O-glycan biosynthesis) (<2 mM) or GlcNAc (5 mM) (negative control, naturally-occurring metabolic counterpart of 4-F-GlcNAc)for 30 h in the presence of human recombinant IL-2. […] Concentrations for BAG were selected based on maximal O-glycosylation inhibitory effects at non-growth inhibitory concentrations as previously reported (39). To determine a suitable concentration of 4-F-GlcNAc for examining glycoconjugate-modifying effects without influencing cell growth or protein synthesis, we performed preliminary growth inhibitory experiments of cells incubated with 4-F-GlcNAc for 2 cell doublings (˜36 h) at 37° C. (cell viability assessed by Trypan-blue exclusion).
For lysate preparation, cells (including radiolabeled cells) were washed 3× in ice cold PBS and lysed in buffer containing 150 mM NaCl, 50 mM Tris-HCl pH 7.4, 1 mM EDTA, 0.02% NaAzide, 20 μg/ml PMSF, Complete™ protease inhibitors cocktail tablets (Roche Molecular Biochemicals) and 2% NP-40 (250 μl/10^8 cells). Following 2 h incubation on ice, insoluble cellular debris was pelleted by centrifugation for 30 min at 10,000×g at 4° C. and solubilized protein lysate was collected and quantified by Bradford protein assay (Sigma Chemical). SDS was added to a final concentration of 1% in lysate preparations utilized for immunoprecipitation experiments.
For SDS-PAGE and Western blotting, cell lysates, membrane proteins or immunoprecipitates were diluted and boiled in reducing sample buffer, and separated on 7–9% SDS-PAGE gels. Resolved protein was transferred to Sequi-blot™ PVDF membrane (Bio-Rad, Inc., Hercules, Calif.) and blocked with FBS for 1 hr at RT. Blots were incubated with rat IgM anti-human CLA HECA-452 (1 μg/ml), mouse IgG anti-human PSGL-1 moAbs PL-2 (1 μg/ml), 203, 4F9 and 4D8 (1 μg each/ml), or mouse IgG anti-human CD43 L60 (1 μg/ml) for 1 hr at RT. Isotype control immunoblots using either rat IgM or mouse IgG were performed in parallel to evaluate non-specific reactive proteins. After three washes with PBS/0.1%Tween-20 (10 min/wash), blots were incubated with the respective secondary Ab, AP-conjugated goat anti-rat IgM (1:400) or goat anti-mouse IgG (1:8000). AP substrate, Western Blue® (Promega, Madison, Wis.) was then added to develop blots.
Cells were then re-cultured in the presence of glycosylation inhibitor, diluent control (PBS) or molecular control (GlcNAc) for 30 hr and then harvested for CLA expression and functional analysis. […] To assess the duration of anti-carbohydrate effects on HECA-452 expression on PSGL-1, cells treated with 4-F-GlcNAc for 30 h and were then re-cultured in non-4-F-GlcNAc-containing medium for 72 h.

For data set [5], the system named is α-mannose (ConA staining). The class given is cell-based, human. Particulars: compared with PBS or GlcNAc treatments. As to the method:
(§5) For lectin blotting, cell lysates (25 μg/spot) were spotted onto methanol-permeabilized PVDF membrane and blocked in FBS for 1 h at RT. Blots were then probed with AP-Canavalia ensiformis agglutinin (ConA) (2.0 μg/ml PBS; specificity: α-mannose), AP-Triticum vulgaris (Wheat germ) agglutinin (WGA) (0.5 μg/ml PBS; specificity: terminal GlcNAc or GlcNAcβ1,4GlcNAc) or AP-Lycopersicon esculentum (tomato lectin) agglutinin (LEA) (1.0 μg/ml PBS; specificity: (Galβ1,4GlcNAc)n) for 1 h at RT (All lectins from EY Labs., Inc., San Mateo, Calif.). After washing 3× in PBS/0.1% Tween-20 and 1× in PBS (10 min each), blots were developed with Western Blue®.
(§6) To analyze and identify the glycan modifications on CLA^+ T-cells treated with 4-F-GlcNAc, lectin blotting experiments were performed with ConA (Specificity: α-mannose), WGA (Specificity: terminal GlcNAc or GlcNAcβ1,4GlcNAc) and LEA (Specificity: {Galβ1,4GlcNAc}n).

Data set [6] concerns (Galβ1,4GlcNAc)n (LEA staining). Kind of data set: Lectin blot with LEA of CLA+ T-cell lysates. The class given is cell-based, human. Particulars: compared with PBS or GlcNAc treatments. As to the method: as §5, §6
Data set [7] has as its system panel of human tumor cell lines as well as normal endothelial cells. Kind of data set: Growth inhibition (IC50) of human tumor cell lines and normal endothelial cells. The class given is cell-based. Particulars: newly synthesized compounds compared with compounds synthesized by the original method. The text has this:
Before conducting experiments with newly synthesized 3- and 4-F-GlcNAc the effects of 3- and 4-F-GlcNAc on the growth of a panel of human tumor cell lines as well as normal endothelial cells (i.e. IC50 values) were first determined and compared with the original growth inhibitory action (9 Bernacki, R. J. et al. (1977) J. Supra. Stru., 7:235–250; 10 Sharma, M. and W. Korytnyk (1980) Carbohyd. Res., 79:39–51;11 Sharma, M. et al. (1990). Carbohyd. Res., 198:205–22).

For data set [8] the following is noted: previous studies; cited from earlier work.
Data set [9] has as its system human ovarian, A121, tumor cells. Particulars: cited from earlier work.

SMILES strings stand for the structures.

Consider `CC(=O)N[C@H]1C(OCc2ccccc2)O[C@H](CO)[C@H](O)[C@@H]1O` (stereo partly shown) [BAG, benzyl-O-N-acetylgalactosamide], for which the “rolling adhesions on P-selectin chimera” value in data set [1] is “significant reductions”. In addition, the “rolling adhesions on E-selectin chimera” value in [2] is given as “significant reductions”. Further, the “rolling adhesions on L-selectin chimera” value in data set [3] is “significant reductions”. The “de novo synthesized HECA-452 epitopes on PSGL-1 (Western blot)” value in data set [4] is reported as “marked reduction”. The “effects on HECA-452 expression” value in data set [4] (concentrations below 1.0 mM, preliminary, data not shown) is “minimal effects”. In addition, the “ConA staining of lysates” value in [5] is “no effect”. Besides, the “LEA staining of lysates” value in [6] is reported as “did not affect”.
Consider `CC(=O)N[C@H]1C(OC(C)=O)O[C@H](COC(C)=O)[C@@H](OC(C)=O)[C@@H]1F` (stereo partly drawn) [3-F-GlcNAc, 2-acetamido-2-deoxy-1,4,6-tri-O-acetyl-3-deoxy-3-fluoro-D-glucopyranose], for which the “IC50 values, growth of tumor cell lines and normal endothelial cells” value in data set [7] is “identical to those that were previously described”. Further, the dose limiting toxicity in [8] is reported as around 250 mg/kg×6 days. In addition, the “incorporation of radiolabeled sugar precursors” value in data set [9] was “conspicuous reductions”.

Values taken from patent US7098195B2, “Fluorinated glucosamine analogs useful for modulating post-translational glycosylations on cells” (Health Research, Inc., priority 2001, dated 2006).
